Measured values from PubChem BioAssay AID2060599 (Molecular Pharmacology Branch, DTP, NCI, 2025).

Tested on: 817829-284-R-J1-PDC complex spheroids, viability
Test: Anticancer human tumor 817829-284-R-J1-PDC patient-derived colon adenocarcinoma cell line growth inhibition [CLK]
Conditions: for IC50: curve of first compound; for viability, T/C: stronger effect = lower value
Outline: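 Patient-derived tumor cells grown as complex spheroids with HUVEC endothelial cells and mesenchymal stem cells, treated with drug combinations. Concentrations descend in half-log steps from near clinical Cmax, or from 10 microM if Cmax unknown.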

[1] = second compound 0.0316 µM, first compound 0.0316 µM
[2] = second compound 0.0316 µM, first compound 0.1 µM
[3] = second compound 0.0316 µM, first compound 0.316 µM
[4] = second compound 0.0316 µM, first compound 1 µM
[5] = second compound 0.0316 µM, first compound 3.16 µM
[6] = second compound 0.0316 µM, first compound 10 µM
[7] = second compound 0.1 µM, first compound 0.0316 µM
[8] = second compound 0.1 µM, first compound 0.1 µM
[9] = second compound 0.1 µM, first compound 0.316 µM
[10] = second compound 0.1 µM, first compound 1 µM
[11] = second compound 0.1 µM, first compound 3.16 µM
[12] = second compound 0.1 µM, first compound 10 µM
[13] = second compound 0.316 µM, first compound 0.0316 µM
[14] = second compound 0.316 µM, first compound 0.1 µM
[15] = second compound 0.316 µM, first compound 0.316 µM
[16] = second compound 0.316 µM, first compound 1 µM
[17] = second compound 0.316 µM, first compound 3.16 µM
[18] = second compound 0.316 µM, first compound 10 µM
[19] = second compound 1 µM, first compound 0.0316 µM
[20] = second compound 1 µM, first compound 0.1 µM
[21] = second compound 1 µM, first compound 0.316 µM
[22] = second compound 1 µM, first compound 1 µM
[23] = second compound 1 µM, first compound 3.16 µM
[24] = second compound 1 µM, first compound 10 µM
[25] = second compound 3.16 µM, first compound 0.0316 µM
[26] = second compound 3.16 µM, first compound 0.1 µM
[27] = second compound 3.16 µM, first compound 0.316 µM
[28] = second compound 3.16 µM, first compound 1 µM
[29] = second compound 3.16 µM, first compound 3.16 µM
[30] = second compound 3.16 µM, first compound 10 µM
[31] = second compound 10 µM, first compound 0.0316 µM
[32] = second compound 10 µM, first compound 0.1 µM
[33] = second compound 10 µM, first compound 0.316 µM
[34] = second compound 10 µM, first compound 1 µM
[35] = second compound 10 µM, first compound 3.16 µM
[36] = second compound 10 µM, first compound 10 µM
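Also: spheroids exposed to the agents for seven days before readout.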

## CC(=O)O[C@H]1C(=O)[C@@]2(C)[C@H]([C@H](OC(=O)c3ccccc3)[C@]3(O)C[C@H](OC(=O)[C@H](O)[C@@H](NC(=O)c4ccccc4)c4ccccc4)C(C)=C1C3(C)C)[C@]1(OC(C)=O)CO[C@@H]1C[C@@H]2O + CN1CCN(c2cc(C(=O)Nc3cc4cc(-c5cnn(C)c5)ccc4cn3)ccn2)CC1
Second compound 0.0316 µM
  IC50: < 31.6 nM
Second compound 0.1 µM
  IC50: < 31.6 nM
Second compound 0.316 µM
  IC50: < 31.6 nM
Second compound 1 µM
  IC50: < 31.6 nM
Second compound 3.16 µM
  IC50: < 31.6 nM
Second compound 10 µM
  IC50: < 31.6 nM
[1]
  viability, T/C: 5.38%
[2]
  viability, T/C: 5.12%
[3]
  viability, T/C: 4.55%
[4]
  viability, T/C: 4.77%
[5]
  viability, T/C: 5.22%
[6]
  viability, T/C: 5.27%
[7]
  viability, T/C: 5.23%
[8]
  viability, T/C: 4.54%
[9]
  viability, T/C: 4.59%
[10]
  viability, T/C: 4.02%
[11]
  viability, T/C: 4.74%
[12]
  viability, T/C: 5.63%
[13]
  viability, T/C: 2.41%
[14]
  viability, T/C: 2.26%
[15]
  viability, T/C: 2.43%
[16]
  viability, T/C: 2.04%
[17]
  viability, T/C: 2.2%
[18]
  viability, T/C: 2.45%
[19]
  viability, T/C: 0.09%
[20]
  viability, T/C: 0.1%
[21]
  viability, T/C: 0.09%
[22]
  viability, T/C: 0.07%
[23]
  viability, T/C: 0.09%
[24]
  viability, T/C: 0.11%
[25]
  viability, T/C: 0.11%
[26]
  viability, T/C: 0.14%
[27]
  viability, T/C: 0.13%
[28]
  viability, T/C: 0.16%
[29]
  viability, T/C: 0.1%
[30]
  viability, T/C: 0.14%
[31]
  viability, T/C: 0.07%
[32]
  viability, T/C: 0.1%
[33]
  viability, T/C: 0.11%
[34]
  viability, T/C: 0.09%
[35]
  viability, T/C: 0.11%
[36]
  viability, T/C: 0.12%

## CCc1c2c(nc3ccc(O)cc13)-c1cc3c(c(=O)n1C2)COC(=O)[C@]3(O)CC + CN1CCN(c2cc(C(=O)Nc3cc4cc(-c5cnn(C)c5)ccc4cn3)ccn2)CC1
Second compound 0.0316 µM
  IC50: < 3.16 nM
Second compound 0.1 µM
  IC50: < 3.16 nM
Second compound 0.316 µM
  IC50: < 3.16 nM
Second compound 1 µM
  IC50: < 3.16 nM
Second compound 3.16 µM
  IC50: < 3.16 nM
Second compound 10 µM
  IC50: < 3.16 nM
Second compound 0.0316 µM, first compound 0.00316 µM
  viability, T/C: 18.9%
Second compound 0.0316 µM, first compound 0.01 µM
  viability, T/C: 14.8%
[1]
  viability, T/C: 12.5%
[2]
  viability, T/C: 6.83%
[3]
  viability, T/C: 4.71%
[4]
  viability, T/C: 2.93%
Second compound 0.1 µM, first compound 0.00316 µM
  viability, T/C: 14.1%
Second compound 0.1 µM, first compound 0.01 µM
  viability, T/C: 11.4%
[7]
  viability, T/C: 7.3%
[8]
  viability, T/C: 4.95%
[9]
  viability, T/C: 3.31%
[10]
  viability, T/C: 1.84%
Second compound 0.316 µM, first compound 0.00316 µM
  viability, T/C: 2.41%
Second compound 0.316 µM, first compound 0.01 µM
  viability, T/C: 2.17%
[13]
  viability, T/C: 1.78%
[14]
  viability, T/C: 0.79%
[15]
  viability, T/C: 0.28%
[16]
  viability, T/C: 0.34%
Second compound 1 µM, first compound 0.00316 µM
  viability, T/C: 0.09%
Second compound 1 µM, first compound 0.01 µM
  viability, T/C: 0.12%
[19]
  viability, T/C: 0.2%
[20]
  viability, T/C: 0.27%
[21]
  viability, T/C: 0.27%
[22]
  viability, T/C: 0.41%
Second compound 3.16 µM, first compound 0.00316 µM
  viability, T/C: 0.14%
Second compound 3.16 µM, first compound 0.01 µM
  viability, T/C: 0.18%
[25]
  viability, T/C: 0.19%
[26]
  viability, T/C: 0.21%
[27]
  viability, T/C: 0.31%
[28]
  viability, T/C: 0.67%
Second compound 10 µM, first compound 0.00316 µM
  viability, T/C: 0.05%
Second compound 10 µM, first compound 0.01 µM
  viability, T/C: 0.1%
[31]
  viability, T/C: 0.12%
[32]
  viability, T/C: 0.13%
[33]
  viability, T/C: 0.15%
[34]
  viability, T/C: 0.1%

## O=c1[nH]cc(F)c(=O)[nH]1 + CN1CCN(c2cc(C(=O)Nc3cc4cc(-c5cnn(C)c5)ccc4cn3)ccn2)CC1
Second compound 0.0316 µM
  IC50: 851 nM
Second compound 0.1 µM
  IC50: < 31.6 nM
Second compound 0.316 µM
  IC50: < 31.6 nM
Second compound 1 µM
  IC50: < 31.6 nM
Second compound 3.16 µM
  IC50: < 31.6 nM
Second compound 10 µM
  IC50: < 31.6 nM
[1]
  viability, T/C: 72.7%
[2]
  viability, T/C: 66.3%
[3]
  viability, T/C: 57.1%
[4]
  viability, T/C: 52.4%
[5]
  viability, T/C: 33.8%
[6]
  viability, T/C: 26.3%
[7]
  viability, T/C: 18.2%
[8]
  viability, T/C: 17.6%
[9]
  viability, T/C: 22.3%
[10]
  viability, T/C: 20.8%
[11]
  viability, T/C: 18.9%
[12]
  viability, T/C: 15.9%
[13]
  viability, T/C: 2.25%
[14]
  viability, T/C: 2.52%
[15]
  viability, T/C: 1.94%
[16]
  viability, T/C: 2.49%
[17]
  viability, T/C: 2.36%
[18]
  viability, T/C: 2.06%
[19]
  viability, T/C: 0.14%
[20]
  viability, T/C: 0.12%
[21]
  viability, T/C: 0.18%
[22]
  viability, T/C: 0.07%
[23]
  viability, T/C: 0.07%
[24]
  viability, T/C: 0.05%
[25]
  viability, T/C: 0.14%
[26]
  viability, T/C: 0.11%
[27]
  viability, T/C: 0.11%
[28]
  viability, T/C: 0.1%
[29]
  viability, T/C: 0.15%
[30]
  viability, T/C: 0.14%
[31]
  viability, T/C: 0.07%
[32]
  viability, T/C: 0.08%
[33]
  viability, T/C: 0.1%
[34]
  viability, T/C: 0.11%
[35]
  viability, T/C: 0.13%
[36]
  viability, T/C: 0.08%
